Assay results published in patent US6583132B1, “Oxidant scavengers” (Duke University, priority 1993, dated 2003).
Read-outs that look alike come from different tables or passages of the source.

Columns and labels:
xanthine oxidase = target: T1, xanthine oxidase (Bos taurus, UniProt P80457); assay: Inhibition of xanthine oxidase; type: biochemical; conditions: for Ki: pH 10, 25° C., 1 nM xanthine oxidase
T1 construct: purchased Boehringer Mannheim
Experimental: In a first study, assays were performed in a 1 ml quartz cuvette containing 50 mM carbonate buffer, pH 10, 0.1 mM EDTA, 1 nM xanthine oxidase (Boehringer Mannheim) at 25° C. Xanthine oxidase activity was measured spectrophotometrically by following the […] over time at 295 nm. Four concentrations of xanthine (25, 50, 250, 500 μM) and 2 concentrations of MnTBAP (5, 10 μM) were used. Two inhibition constants were then derived from the curve's intercepts (Kii=5.5 μM) and slopes (Kis=15 μM).

[1] = test system: calf pulmonary artery endothelial cell cultures (CPA-47); assay: Xanthine oxidase/xanthine-induced injury, LDH release; type: cell-based; conditions: 50 μM, 1 hour pre-incubation; XO plus 200 μM xanthine, 24 hours
Experimental: In a second study, calf pulmonary artery endothelial cell cultures (CPA-47 (Tissue and Cell 10:535 (1978)) were grown to confluence in Ham's F-12K medium with 10% fetal bovine serum at pH 7.4 and 37° C. Cells were then trypsinized and seeded at equal densities in 24 well plates and grown to 90% confluence. Cells were washed and pre-incubated for 1 hour with 50 μM of MnTBAO in minimum essential medium (MEM) or MEM only. Various amounts of xanthine oxidase (XO) plus 200 μM xanthine (X) were added and allowed to incubate for 24 hours. Cell injury was quantitated by measuring the release of cellular lactate dehydrogenase (LDH) into the medium.

[2] = Paraquat-induced lung injury, BALF analysis; type: in vivo, Mice; conditions: 2.5 mg/ml nebulized 30 minutes twice daily for 2 days; paraquat 45 mg/kg ip; 48 hours
Experimental: Mice were treated with either paraquat (PQ, 45 mg/kg, ip) or saline (10 ml/kg, ip) and exposed to MnTBAP (2.5 mg/ml, nebulized into a 2 L chamber at 2 L/min for 30 minutes twice daily for 2 days) or room air. Mice were killed 48 hours after start of treatment and lung injury was assessed by analysis of bronchoalveolar lavage fluid (BALF). BALF damage markers used were lactate dehydrogenase (LDH, as units/L), proteins concentration (as mg/dl), and percent of polymorphonuclear leukocytes (PMN).

J774 macrophages [3] = assay: Nitrite/nitrate production in J774 macrophages; type: cell-based; conditions: for inhibition of LPS-induced nitrite/nitrate accumulation: LPS 10 μg/ml; for inhibition of nitrite/nitrate accumulation: LPS and IFN
Experimental: (§1) Cell culture: J774 macrophages were cultured in DMEM medium, supplemented with L-glutamine (3.5 mmol/L) and 10% fetal calf serum. Cells were cultured in 96-well plates (200 μl medium/well) until confluence. To induce the inducible isoform of nitric oxide synthase (iNOS), fresh culture medium containing E. coli LPS (011:B4, 10 μg/ml) alone or in combination with murine γ-interferon (γ-IFN, 10 U/ml) was added in the presence or absence of the NOS inhibitor, the SOD mimetic of the combination of the two compounds for 24 h. Moreover, cells were exposed to the NO donor compounds S-nitroso-N-acetyl-DL-penicillamine (SNAP) (3 mM) and diethylamine:NO NONOate (DNO) (3 mM) for 24 h or to authentic peroxynitrite (1 mM) for 1 h). Nitride/nitrate concentration in the medium and mitochondrial respiration were then measured as described below.
Measurement of nitrite/nitrate production: Nitride/nitrate production, an indicator of NO synthesis, was measured in the supernatant. First, nitrate in the culture medium was reduced to nitrite by incubation with nitrate reductase (670 mU/ml) and NADPH (160 μM) at room temperature for 2 h. After 2 h, nitrite concentration in the samples were measured by the Griess reaction, by adding 100 μl of Griess reagent (1% sulfanilamide and 0.1% naphthylethylenediamide in 5% phosphoric acid) to 100 μl samples of conditioned medium. The optical density at 550 nm (OD550) was measured using a Spectramax 250 microplate reader (Molecular Devices, Sunnyvale, Calif.) Nitrate concentrations were calculated by comparison with OD550 of standard solutions of sodium nitrate prepared in culture medium. All measurements were corrected for the interference of MnTBAP at this wavelength.

[4] = test system: Calf pulmonary endothelial cell (CPA-47) line; assay: Glucose oxidase hydrogen peroxide injury of CPA-47, Cr^51 release; type: cell-based; conditions: glucose oxidase 100 Mu/ml, 4 hours; 1 hour pretreatment
Experimental: (§2) Calf pulmonary endothelial cell (CPA-47) line was grown to near confluence in 12-well plates with F-12K medium containing 10% fetal calf serum. CPA-47 cells were loaded with Cr^51 as previously described by Simon et al J. Clin. Invest. 78:1375 (1986) in high glucose minimum essential medium (DMEM). Cells were pretreated with MnTBAP (100 μM) for 1 hour and then exposed to various concentrations of hydrogen peroxide generator, glucose oxidase, for 4 hours. Cell injury was then quantitated as the specific Cr^51 release from CPA-47 cells which has been adjusted for spontaneous Cr51 release.
as §2, with “(J.” for “J.”, “(1986))” for “(1986)”, “various concentrations of either: (A) MnTBAP; (B) MnTMPyP; (C) ZnTBAP; or (D) CuZnSOD” for “MnTBAP (100 μM)”, “the” for “various concentrations of”, “oxidase (100 Mu/ml),” for “oxidase,”, “Cr^51” for “Cr51”

J774 macrophages [5] = assay: Mitochondrial respiration (MTT) in J774 macrophages; type: cell-based
Experimental: as §1
Measurement of mitochondrial respiration: Cell respiration was assessed by the mitochondrial-dependent reduction of 3-(4,5-dimethylthiazol-2-yl)-2,5-diphenyltetrazolium bromide (MTT) to formazan. Cells in 96-well plates were incubated at 37° C. with MTT (0.2 mg/ml) for 1 hour. Culture medium was removed by aspiration and the cells were solubilized in DMSO (100 μl). The extent of reduction of MTT to formazan within cells was quantitated by the measurement of OD550. All measurements were corrected for the interference of MnTBAP at this wavelength.

T1 sequence (P80457 whole entry): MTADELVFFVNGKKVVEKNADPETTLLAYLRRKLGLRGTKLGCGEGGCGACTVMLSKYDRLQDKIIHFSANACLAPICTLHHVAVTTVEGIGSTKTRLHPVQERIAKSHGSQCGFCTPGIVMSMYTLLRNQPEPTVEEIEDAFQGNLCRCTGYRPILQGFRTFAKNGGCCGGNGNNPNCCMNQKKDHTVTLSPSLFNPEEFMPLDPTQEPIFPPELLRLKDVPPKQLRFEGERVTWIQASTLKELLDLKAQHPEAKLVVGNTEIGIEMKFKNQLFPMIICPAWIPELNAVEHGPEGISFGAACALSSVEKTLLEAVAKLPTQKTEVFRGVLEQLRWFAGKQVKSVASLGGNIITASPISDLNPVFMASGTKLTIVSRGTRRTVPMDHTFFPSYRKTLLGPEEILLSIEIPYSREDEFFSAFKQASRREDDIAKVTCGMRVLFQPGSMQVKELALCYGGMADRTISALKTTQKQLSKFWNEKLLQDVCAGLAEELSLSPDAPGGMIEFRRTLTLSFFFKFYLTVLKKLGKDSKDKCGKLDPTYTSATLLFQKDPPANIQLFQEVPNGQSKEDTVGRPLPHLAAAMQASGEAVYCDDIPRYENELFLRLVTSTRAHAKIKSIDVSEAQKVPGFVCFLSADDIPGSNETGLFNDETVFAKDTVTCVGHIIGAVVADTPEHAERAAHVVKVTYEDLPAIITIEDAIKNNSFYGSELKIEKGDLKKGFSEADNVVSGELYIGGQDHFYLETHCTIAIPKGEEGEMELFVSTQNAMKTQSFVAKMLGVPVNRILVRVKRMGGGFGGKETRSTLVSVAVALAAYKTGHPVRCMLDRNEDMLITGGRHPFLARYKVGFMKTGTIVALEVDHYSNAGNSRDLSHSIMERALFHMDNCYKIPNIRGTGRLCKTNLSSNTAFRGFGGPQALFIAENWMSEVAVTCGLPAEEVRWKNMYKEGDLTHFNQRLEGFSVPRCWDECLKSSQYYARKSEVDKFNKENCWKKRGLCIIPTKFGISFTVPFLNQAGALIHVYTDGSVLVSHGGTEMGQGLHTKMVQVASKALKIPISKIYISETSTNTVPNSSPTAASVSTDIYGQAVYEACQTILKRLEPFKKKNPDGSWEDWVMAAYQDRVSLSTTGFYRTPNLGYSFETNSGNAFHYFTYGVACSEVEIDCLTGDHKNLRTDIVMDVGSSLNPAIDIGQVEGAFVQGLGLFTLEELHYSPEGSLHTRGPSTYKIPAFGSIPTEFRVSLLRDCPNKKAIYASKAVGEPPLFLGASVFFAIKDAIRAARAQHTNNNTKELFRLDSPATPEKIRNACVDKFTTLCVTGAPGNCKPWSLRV

Substance: Mn(III) tetrakis (4-benzoic acid)porphyrin [MnTBAP]
- manner of inhibition of xanthine oxidase (xanthine oxidase): non-competitive
- Ki (xanthine oxidase; read-out: Kii (inhibition constant from intercepts)): 5.5 µM
- Ki (xanthine oxidase; read-out: Kis (inhibition constant from slopes)): 15 µM
- XO/X-induced LDH release [1]: decrease in XO/X-induced LDH release
- protection against paraquat-induced lung injury [2]: partial protection
- nitrite/nitrate formation in the presence of L-NMA (J774 macrophages [3]): no additional effect
- inhibition of LPS-induced nitrite/nitrate accumulation (J774 macrophages [3]; 100 μM): 63%
- inhibition of nitrite/nitrate accumulation (J774 macrophages [3]; 100 μM): 25%
- nitrite/nitrate accumulation in response to DNO (J774 macrophages [3]; 300 μM): slight inhibition
- nitrite/nitrate accumulation in response to SNAP (J774 macrophages [3]; 300 μM): did not inhibit
- inhibition of LPS-induced nitrite/nitrate accumulation (J774 macrophages [3]; 300 μM): 86%
- inhibition of nitrite/nitrate accumulation (J774 macrophages [3]; 300 μM): 61%
- change of inhibition of nitrite/nitrate accumulation when applied 6 h after LPS (J774 macrophages [3]; LPS-stimulated macrophages): more than 50%
- hydrogen peroxide-induced endothelial cell injury [4]: reduction
- suppression of mitochondrial respiration by peroxynitrite (J774 macrophages [5]; 1 mM peroxynitrite, 1 h): partially and dose dependently prevented
- immunostimulation-induced suppression of mitochondrial respiration (J774 macrophages [5]; LPS-treated and LPS and IFN-treated cells, 24 h): dose-dependent, partial restoration
- suppression of mitochondrial respiration by NO donors SNAP and DNO (J774 macrophages [5]; SNAP, DNO 3 mM, 24 h): partially and dose dependently prevented
